Data: patent publication US20230312561A1, “SOLID FORMS OF (Z)-METHYL 3-(((4-(N-METHYL-2-(4-METHYLPIPERAZIN-1-YL)ACETAMIDO)PHENYL)AMINO)(PHENYL)METHYLENE)-2-OXO-2,3-DIHYDRO-1H-PYRROLO[2,3-B]PYRIDINE-6-CARBOXYLATE AND SALTS THEREOF” (Angion Biomedica Corp., priority 2020, published 2023)

Assays:
Assay type in all cases: physicochemical
[1] = Solution state stability of Compound 1 Hydrochloride (HPLC purity in stressing media, 25° C.)
Description: The solution state stability of Compound 1 Hydrochloride Form A (Type 1 Lot) was examined under various storage conditions within a suitable glass vessel with stirrer bead agitation at 25° C. Compound 1 Hydrochloride stock solution ([…]) in HPLC diluent (acetonitrile/water, 1:1) was prepared and 5 mL placed within suitable glass vessels with stirrer bead agitation at 25° C. An aliquot of the appropriate stressing medium (5 mL) was added to achieve a sample concentration of approximately 0.5 mg/mL. The samples were agitated and stored at 25° C. and the solutions assessed for HPLC purity for stability at particular time points.

[2] = Solid state stability in sealed vial (XRPD, TGA, HPLC)
Description: High performance liquid chromatography (HPLC) was performed according to the conditions described in Table 1: […] Upon storage for the appropriate period, the entire sample was removed, and the resulting solids assessed via XRFD, HPLC and TGA. Sample preparation for HPLC was conducted using deionized water and a working concentration of 0.5 mg/mL. […] A control sample was packed and stored in an equivalent manner and tested at T=2 and 4 weeks. Form A was stable at 40° C. and 80° C. for at least up to 4 weeks.

[3] = Dynamic Vapor Sorption (DVS) analysis with XRPD after equilibration
Description: Sorption isotherms were obtained using a Hiden Isochema moisture sorption analyzer (model IGAsorp), controlled by IGAsorp Systems Software V6.50.48. The sample was maintained at a constant temperature (25° C.) by the instrument controls. The humidity was controlled by mixing streams of dry and wet nitrogen, with a total flow of 250 mL·min^−1. The instrument was verified for relative humidity content by measuring three calibrated Rotronic salt solutions (10%, 50%, 88%). The weight change of the sample was monitored as a function of humidity by a microbalance (accuracy+/−0.005 mg). A defined amount of sample was placed in a tared mesh stainless steel basket under ambient conditions. A full experimental cycle typically consisted of three scans (sorption, desorption and sorption) at a constant temperature (25° C.) and 10% RH intervals over a 0-90% range (60 minutes for each humidity level). […]
This water content decreased as relative humidity decreased in the first desorption cycle.
The solid absorbed 3.39% water over the humidity range. […] The profile was similar to that of Form C in Example 7.2.

[4] = Biorelevant solubility (water, saline, FaSSIF, FeSSIF, FaSSGF, 37° C.)
Description: Due to pH drift in a previous study (see Example 12.1), in order to obtain a more accurate pH solubility evaluation, a study was designed using water, saline, FaSSIF (fasted state simulated intestinal fluid, pH 6.5), […] (fed state simulated intestinal fluid, pH 5.0), and FaSSGF (fasted state simulated gastric fluid, pH 1.6), which would ensure ending pH and buffer pH remained the same. […] The study design was successful, and all initial pH values were maintained. […] The pH was measured constantly during the addition up to the point of movement in the buffer, at which point additions were halted and the solutions or suspensions matured over 48 hours at 37° C. Samples were taken for solubility evaluation at the specified time-points and clarified through 0.45 micron filters and pH measured on the settled suspensions. Solubility was determined vs a 0.5 mg/mL reference. 35 mg portions were added to FaSSGF and FeSSIF maintaining solutions.

[5] = 40° C., sealed vial, T = 1 week
[6] = 40° C., sealed vial, T = 2 weeks
[7] = 40° C., sealed vial, T = 4 weeks
[8] = 80° C., sealed vial, T = 1 week
[9] = 80° C., sealed vial, T = 2 weeks
[10] = 80° C., sealed vial, T = 4 weeks
[11] = 150° C., sealed vial, T = 1 week

With `COC(=O)c1ccc2c(c1)NC(=O)/C2=C(\Nc1ccc(N(C)C(=O)CN2CCN(C)CC2)cc1)c1ccccc1.Cl` [Compound 1 Hydrochloride Form A (Type 1 Lot)] the “HPLC (%)” value ([1]; 1 M HCl, 1 h) was 99.53%, the “HPLC (%)” value ([1]; 1 M HCl, 6 h) was 99.29% and the “HPLC (%)” value ([1]; 1 M HCl, 24 h) was 96.56%. For the same compound, the “HPLC (%)” value ([1]; 1 M HCl, 3 d) was 95.63%, the “HPLC (%)” value ([1]; 1 M HCl, 7 d) was 90.58% and the “HPLC (%)” value ([1]; 1 M NaOH, 1 h) was 0.49%. For the same compound, the “HPLC (%)” value ([1]; 1 M NaOH, 6 h) was 0.65%, the “HPLC (%)” value ([1]; 5% H2O2, 1 h) was 80.39% and the “HPLC (%)” value ([1]; 5% H2O2, 6 h) was 46.74%. The “HPLC (%)” value ([1]; 5% H2O2, 24 h) was 0.42%, the “HPLC (%)” value ([1]; Control (water), 1 h) was 99.68% and the “HPLC (%)” value ([1]; Control (water), 6 h) was 99.69%. For the same compound, the “HPLC (%)” value ([1]; Control (water), 24 h) was 99.54%, the “HPLC (%)” value ([1]; Control (water), 3 d) was 99.42% and the “HPLC (%)” value ([1]; Control (water), 7 d) was 99.50%. For the same compound, the “solid state stability in sealed vial” value ([2]; 40° C. and 80° C., at least up to 4 weeks) was “stable”, the “HPLC (%)” value [2, 5] was 99.43% and the “TGA (%)” value [2, 5] was 12.01%. The “HPLC (%)” value [2, 6] was 99.43%, the “TGA (%)” value [2, 6] was 12.15% and the “HPLC (%)” value [2, 7] was 99.65%. For the same compound, the “TGA (%)” value [2, 7] was 11.6%, the XRPD [2, 7] was “Form A” and the “HPLC (%)” value [2, 8] was 99.53%. For the same compound, the “TGA (%)” value [2, 8] was 3.76%, the “HPLC (%)” value [2, 9] was 99.45% and the “TGA (%)” value [2, 9] was 3.71%. The “HPLC (%)” value [2, 10] was 99.59%, the “TGA (%)” value [2, 10] was 3.35% and the “HPLC (%)” value [2, 11] was 36.6%. The “TGA (%)” value [2, 11] was 1.14%, the “HPLC (%)” value ([2]; Ambient (control), T = 0) was 99.54% and the “TGA (%)” value ([2]; Ambient (control), T = 0) was 12.07%. For the same compound, the “HPLC (%)” value ([2]; Ambient (control), T = 2 weeks) was 99.43%, the “TGA (%)” value ([2]; Ambient (control), T = 2 weeks) was 11.99% and the “HPLC (%)” value ([2]; Ambient (control), T = 4 weeks) was 99.53%. The “TGA (%)” value ([2]; Ambient (control), T = 4 weeks) was 12.15%, the XRPD ([2]; Ambient (control), T = 4 weeks) was “Form A” and the “XRPD across the humidity range over the course of DVS analysis” value ([3]; 0-90% RH) was “Form A remained”. The “water absorbed over the humidity range (DVS)” value ([3]; 25° C., 0-90% RH) was 13.4 wt %, the “reversibility of water uptake (DVS)” value ([3]; as relative humidity decreased) was “reversible” and the “water uptake (DVS)” value ([3]; high humidity, comparison stated in Example 7.3) was “above 13%”. The “water uptake up to 30% RH (DVS)” value ([3]; up to 30% RH) was 8.5 wt %, the solubility in saline [4] was > 50 mg/mL and the solubility in water [4] was > 50 mg/mL. For the same compound, the “Final pH” value ([4]; 0.9% NaCl) was 3.03, the “Solubility (mg/mL) T = 1 h” value ([4]; 0.9% NaCl) was >50 mg/mL and the “Solubility (mg/mL) T = 3 h” value ([4]; 0.9% NaCl) was >50 mg/mL. For the same compound, the “Solubility (mg/mL) T = 6 h” value ([4]; 0.9% NaCl) was >50 mg/mL, the “Solubility (mg/mL) T = 24 h” value ([4]; 0.9% NaCl) was >50 mg/mL and the “Final pH” value ([4]; FaSSGF (starting pH 1.6)) was 1.65. The “Solubility (mg/mL) T = 1 h” value ([4]; FaSSGF (starting pH 1.6)) was >35 mg/mL, the “Solubility (mg/mL) T = 3 h” value ([4]; FaSSGF (starting pH 1.6)) was >35 mg/mL and the “Solubility (mg/mL) T = 6 h” value ([4]; FaSSGF (starting pH 1.6)) was >35 mg/mL. The “Solubility (mg/mL) T = 24 h” value ([4]; FaSSGF (starting pH 1.6)) was >35 mg/mL, the “Final pH” value ([4]; FaSSIF (starting pH 6.5)) was 6.13 and the “Solubility (mg/mL) T = 1 h” value ([4]; FaSSIF (starting pH 6.5)) was 2.41 mg/mL. The “Solubility (mg/mL) T = 3 h” value ([4]; FaSSIF (starting pH 6.5)) was 3.38 mg/mL, the “Solubility (mg/mL) T = 6 h” value ([4]; FaSSIF (starting pH 6.5)) was 3.74 mg/mL and the “Solubility (mg/mL) T = 24 h” value ([4]; FaSSIF (starting pH 6.5)) was 5.12 mg/mL. The “Final pH” value ([4]; FeSSIF (starting pH 5.0)) was 4.98, the “Solubility (mg/mL) T = 1 h” value ([4]; FeSSIF (starting pH 5.0)) was >35 mg/mL and the “Solubility (mg/mL) T = 3 h” value ([4]; FeSSIF (starting pH 5.0)) was >35 mg/mL. The “Solubility (mg/mL) T = 6 h” value ([4]; FeSSIF (starting pH 5.0)) was >35 mg/mL, the “Solubility (mg/mL) T = 24 h” value ([4]; FeSSIF (starting pH 5.0)) was >35 mg/mL and the “Final pH” value ([4]; Water) was 3.04. The “Solubility (mg/mL) T = 1 h” value ([4]; Water) was >50 mg/mL, the “Solubility (mg/mL) T = 3 h” value ([4]; Water) was >50 mg/mL and the “Solubility (mg/mL) T = 6 h” value ([4]; Water) was >50 mg/mL. The “Solubility (mg/mL) T = 24 h” value ([4]; Water) was >50 mg/mL and the “solubility in FeSSIF” value ([4]; pH 5.0) was > 50 mg/mL.
